From patent publication US8563714B2, “Bridged spiro [2.4] heptane derivatives as ALX receptor and/or FPRL2 agonists” (Actelion Pharmaceuticals Ltd., priority 2009, dated 2013)

Assays:
human FPRL2 = target: T1, human FPRL2 (Homo sapiens, UniProt P25089); assay: Intracellular calcium measurements (FLIPR), agonistic activity in HEK293-hFPRL2-Gα16 cells; assay type: cell-based; conditions: Fluo-4 calcium FLIPR, normalized to GLY14-Humanin 100 nM
T1 construct: expressed in transfected cells; host or cells: HEK293 (HEK293-hFPRL2-Gα16)
T1 sequence (P25089 1-353): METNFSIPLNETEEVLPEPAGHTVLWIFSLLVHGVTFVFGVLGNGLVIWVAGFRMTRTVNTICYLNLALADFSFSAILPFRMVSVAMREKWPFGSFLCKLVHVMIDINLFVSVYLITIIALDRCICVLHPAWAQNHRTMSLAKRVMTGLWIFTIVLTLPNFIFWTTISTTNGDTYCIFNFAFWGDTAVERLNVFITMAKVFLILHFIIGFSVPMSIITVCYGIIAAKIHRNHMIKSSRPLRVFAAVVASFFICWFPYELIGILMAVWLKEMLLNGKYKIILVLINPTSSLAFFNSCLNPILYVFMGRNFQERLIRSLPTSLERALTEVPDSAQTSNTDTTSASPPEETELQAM
In short: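 Peak values after baseline subtraction are expressed relative to 100 nM Gly14-Humanin; compounds diluted in assay buffer from 10 mM DMSO stocks.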

human ALX receptor = target: T2, human ALX receptor (Homo sapiens, UniProt P25090); assay: Intracellular calcium measurements (FLIPR), agonistic activity in HEK293-hALXR-Gα16 cells; assay type: cell-based; conditions: Fluo-4 calcium FLIPR, normalized to WKYMVm 10 nM
T2 construct: expressed in transfected cells; host or cells: HEK293 (HEK293-hALXR-Gα16)
T2 sequence (P25090 1-351): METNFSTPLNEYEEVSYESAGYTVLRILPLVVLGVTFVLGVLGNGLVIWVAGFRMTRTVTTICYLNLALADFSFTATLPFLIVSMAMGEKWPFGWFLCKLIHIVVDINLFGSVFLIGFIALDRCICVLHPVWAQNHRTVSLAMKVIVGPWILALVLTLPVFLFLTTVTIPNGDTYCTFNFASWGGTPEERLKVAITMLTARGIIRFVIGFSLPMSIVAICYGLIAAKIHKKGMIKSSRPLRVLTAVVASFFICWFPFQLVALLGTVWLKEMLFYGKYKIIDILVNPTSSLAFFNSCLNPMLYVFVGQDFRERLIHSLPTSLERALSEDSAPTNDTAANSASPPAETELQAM
In short: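 Agonist-induced calcium flux was recorded by FLIPR (488/540 nm) in HEK293-hALXR-Gα16 cells pre-loaded with Fluo-4 AM (1 μM, 60 min, 37°C). Peak signal above baseline, after subtracting buffer addition, was expressed relative to WKYMVm at 10 nM final.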

SMILES	EC50 (human FPRL2)	EC50 (human ALX receptor)
CCCCCCN(C)C(=O)[C@H]1[C@H](C(=O)Nc2ccc(Br)cc2)[C@@H]2C=C[C@H]1C21CC1 (racemic) [Example 84, (5R*)—N^5-(4-Bromophenyl)-(6R*)—N^6-methyl-N^6-hexyl-(4S*,7R*)-[4,7-ethenylene-spiro[2.4]heptane]-5,6-dicarboxamide]	5500 nM	133 nM
CC(C)(C)OC(=O)CCCNC(=O)[C@H]1[C@H](C(=O)Nc2ccc(Br)cc2)[C@@H]2C=C[C@H]1C21CC1 (racemic) [Example 89, (5R*)—N^5-(4-Bromophenyl)-(6R*)—N^6-(3-tert-butoxycarbonyl-propyl)-(4S*,7R*)-[4,7-ethenylene-spiro[2.4]heptane]-5,6-dicarboxamide]	2470 nM	191 nM
CC(C)(C)OC(=O)NCc1cccc(CNC(=O)[C@H]2[C@H](C(=O)Nc3ccc(Br)cc3)[C@@H]3C=C[C@H]2C32CC2)c1 (racemic) [Example 90, (5R*)—N^5-(4-Bromophenyl)-(6R*)—N^6-{[(3-N-tert-butoxycarbonyl-aminomethyl)-phenyl]-methyl}-(4S*,7R*)-[4,7-ethenylene-spiro[2.4]heptane]-5,6-dicarboxamide]	2260 nM	194 nM
CCCN(CC1CC1)C(=O)[C@H]1[C@H](C(=O)Nc2ccc(Br)cc2)[C@@H]2C=C[C@H]1C21CC1 (racemic) [Example 91, (5R*)—N^5-(4-Bromophenyl)-(6R*)—N^6-propyl-N^6-(cyclopropylmethyl)-(4S*,7R*)-[4,7-ethenylene-spiro[2.4]heptane]-5,6-dicarboxamide]	2980 nM	200 nM
CC(C)(C)OC(=O)N1CCC(CNC(=O)[C@H]2[C@H](C(=O)Nc3ccc(Br)cc3)[C@@H]3C=C[C@H]2C32CC2)CC1 (racemic) [Example 92, (5R*)—N^5-(4-Bromophenyl)-(6R*)—N^6—(N-tert-butoxycarbonyl-piperidin-4-yl-methyl)-(4S*,7R*)-[4,7-ethenylene-spiro[2.4]heptane]-5,6-dicarboxamide]	2670 nM	204 nM
CC(C)(C)OC(=O)N1CCC(NC(=O)[C@H]2[C@H](C(=O)Nc3ccc(Br)cc3)[C@@H]3C=C[C@H]2C32CC2)CC1 (racemic) [Example 94, (5R*)—N^5-(4-Bromophenyl)-(6R*)—N^6—(N-tert-butoxycarbonyl-piperidin-4-yl)-(4S*,7R*)-[4,7-ethenylene-spiro[2.4]heptane]-5,6-dicarboxamide]	1040 nM	218 nM
CC(C)(C)OC(=O)NCc1ccc(CNC(=O)[C@H]2[C@H](C(=O)Nc3ccc(Br)cc3)[C@@H]3C=C[C@H]2C32CC2)cc1 (racemic) [Example 97, (5R*)—N^5-(4-Bromophenyl)-(6R*)—N^6-[(4-N-tert-butoxycarbonyl-aminomethyl-phenyl)-methyl]-(4S*,7R*)-[4,7-ethenylene-spiro[2.4]heptane]-5,6-dicarboxamide]	1430 nM	391 nM
CC(C)(C)OC(=O)N1CC(NC(=O)[C@H]2[C@H](C(=O)Nc3ccc(Br)cc3)[C@@H]3C=C[C@H]2C32CC2)C1 (racemic) [Example 98, (5R*)—N^5-(4-Bromophenyl)-(6R*)—N^6—(N-tert-butoxycarbonyl-azetidin-3-yl)-(4S*,7R*)-[4,7-ethenylene-spiro[2.4]heptane]-5,6-dicarboxamide]	582 nM	477 nM

Next, values leading:

EC50 (human FPRL2)	EC50 (human ALX receptor)	SMILES
2430 nM	77 nM	CCn1nc(C)cc1CCNC(=O)[C@H]1[C@H](C(=O)Nc2ccc(Br)cc2)[C@@H]2C=C[C@H]1C21CC1 (racemic) [Example 76, (5R*)—N^5-(4-Bromophenyl)-(6R*)—N^6-(2-(1-ethyl-3-methyl-1H-pyrazol-5-yl)-ethyl)-(4S*,7R*)-[4,7-ethenylene-spiro[2.4]heptane]-5,6-dicarboxamide]
5480 nM	80 nM	CCN(CC)CCCNC(=O)[C@H]1[C@H](C(=O)Nc2ccc(Br)cc2)[C@@H]2C=C[C@H]1C21CC1 (racemic) [Example 78, (5R*)—N^5-(4-Bromophenyl)-(6R*)—N^6-(3-diethyl-amino-propyl)-(4S*,7R*)-[4,7-ethenylene-spiro[2.4]heptane]-5,6-dicarboxamide]
7870 nM	97 nM	O=C(NCCN1CCOCC1)[C@H]1[C@H](C(=O)Nc2ccc(Br)cc2)[C@@H]2C=C[C@H]1C21CC1 (racemic) [Example 80, (5R*)—N^5-(4-Bromophenyl)-(6R*)—N^6-(2-morpholino-ethyl)-(4S*,7R*)-[4,7-ethenylene-spiro[2.4]heptane]-5,6-dicarboxamide]
678 nM	123 nM	O=C(NC1CCN(Cc2ccccc2)CC1)[C@H]1[C@H](C(=O)Nc2ccc(Br)cc2)[C@@H]2C=C[C@H]1C21CC1 (racemic) [Example 83, (5R*)—N^5-(4-Bromophenyl)-(6R*)—N^6—(N-benzyl-piperidin-4-yl)-(4S*,7R*)-[4,7-ethenylene-spiro[2.4]heptane]-5,6-dicarboxamide]
8300 nM	146 nM	CC(C)(C)CCNC(=O)[C@H]1[C@H](C(=O)Nc2ccc(Br)cc2)[C@@H]2C=C[C@H]1C21CC1 (racemic) [Example 85, (5R*)—N^5-(4-Bromophenyl)-(6R*)—N^6-(3,3-dimethyl-butyl)-(4S*,7R*)-[4,7-ethenylene-spiro[2.4]heptane]-5,6-dicarboxamide]
6940 nM	147 nM	CN1CCC(NC(=O)[C@H]2[C@H](C(=O)Nc3ccc(Br)cc3)[C@@H]3C=C[C@H]2C32CC2)CC1 (racemic) [Example 86, (5R*)—N^5-(4-Bromophenyl)-(6R*)—N^6—(N-methyl-piperidin-4-yl)-(4S*,7R*)-[4,7-ethenylene-spiro[2.4]heptane]-5,6-dicarboxamide]
2200 nM	156 nM	O=C(NCCCN1CCOCC1)[C@H]1[C@H](C(=O)Nc2ccc(Br)cc2)[C@@H]2C=C[C@H]1C21CC1 (racemic) [Example 87, (5R*)—N^5-(4-Bromophenyl)-(6R*)—N^6-(3-morpholino-propyl)-(4S*,7R*)-[4,7-ethenylene-spiro[2.4]heptane]-5,6-dicarboxamide]
9420 nM	168 nM	Cc1[nH]ncc1CCCNC(=O)[C@H]1[C@H](C(=O)Nc2ccc(Br)cc2)[C@@H]2C=C[C@H]1C21CC1 (racemic) [Example 88, (5R*)—N^5-(4-Bromophenyl)-(6R*)—N^6-(3-(5-methyl-1H-pyrazol-4-yl)-propyl)-(4S*,7R*)-[4,7-ethenylene-spiro[2.4]heptane]-5,6-dicarboxamide]
> 25000 nM	216 nM	O=C(NC1CCCCC1)[C@H]1[C@H](C(=O)Nc2ccc(Br)cc2)[C@@H]2C=C[C@H]1C21CC1 (racemic) [Example 93, (5R*)—N^5-(4-Bromophenyl)-(6R*)—N^6-(cyclohexyl)-(4S*,7R*)-[4,7-ethenylene-spiro[2.4]heptane]-5,6-dicarboxamide]
457 nM	812 nM	Cc1onc(-c2ccccc2)c1CNC(=O)[C@H]1[C@H](C(=O)Nc2ccc(Br)cc2)[C@@H]2C=C[C@H]1C21CC1 (racemic) [Example 101, (5R*)—N^5-(4-Bromophenyl)-(6R*)—N^6-[(5-methyl-3-phenyl-isoxazol-4-yl)-methyl]-(4S*,7R*)-[4,7-ethenylene-spiro[2.4]heptane]-5,6-dicarboxamide]
